pEC50: −log10 of the molar value.
Target: T1, CFTR (Homo sapiens, UniProt P13569, DEL508-508)
T1 construct: endogenous in cells; host or cells: primary human bronchial epithelial cells from CF subjects (F508del/MF-HBE), differentiated at air-liquid interface
Test: HBE2 assay: Ussing chamber assay of CFTR-mediated short-circuit currents
Type: cell-based
Details: F508del/MF-HBE cells, with 44 nM potentiator, 18-24 hours, 20% human serum
Method in brief: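 F508del/MF-HBE cultured >14 days at air-liquid interface, mounted in Ussing chambers; transepithelial short-circuit current recorded under voltage clamp (Vhold=0 mV) at 37 °C. CFTR-mediated ISC (μA/cm^2) taken as peak forskolin response relative to steady-state current after inhibition; corrector activity assessed this way.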

T1 sequence (P13569 with tags, fused parts or gaps DEL508-508): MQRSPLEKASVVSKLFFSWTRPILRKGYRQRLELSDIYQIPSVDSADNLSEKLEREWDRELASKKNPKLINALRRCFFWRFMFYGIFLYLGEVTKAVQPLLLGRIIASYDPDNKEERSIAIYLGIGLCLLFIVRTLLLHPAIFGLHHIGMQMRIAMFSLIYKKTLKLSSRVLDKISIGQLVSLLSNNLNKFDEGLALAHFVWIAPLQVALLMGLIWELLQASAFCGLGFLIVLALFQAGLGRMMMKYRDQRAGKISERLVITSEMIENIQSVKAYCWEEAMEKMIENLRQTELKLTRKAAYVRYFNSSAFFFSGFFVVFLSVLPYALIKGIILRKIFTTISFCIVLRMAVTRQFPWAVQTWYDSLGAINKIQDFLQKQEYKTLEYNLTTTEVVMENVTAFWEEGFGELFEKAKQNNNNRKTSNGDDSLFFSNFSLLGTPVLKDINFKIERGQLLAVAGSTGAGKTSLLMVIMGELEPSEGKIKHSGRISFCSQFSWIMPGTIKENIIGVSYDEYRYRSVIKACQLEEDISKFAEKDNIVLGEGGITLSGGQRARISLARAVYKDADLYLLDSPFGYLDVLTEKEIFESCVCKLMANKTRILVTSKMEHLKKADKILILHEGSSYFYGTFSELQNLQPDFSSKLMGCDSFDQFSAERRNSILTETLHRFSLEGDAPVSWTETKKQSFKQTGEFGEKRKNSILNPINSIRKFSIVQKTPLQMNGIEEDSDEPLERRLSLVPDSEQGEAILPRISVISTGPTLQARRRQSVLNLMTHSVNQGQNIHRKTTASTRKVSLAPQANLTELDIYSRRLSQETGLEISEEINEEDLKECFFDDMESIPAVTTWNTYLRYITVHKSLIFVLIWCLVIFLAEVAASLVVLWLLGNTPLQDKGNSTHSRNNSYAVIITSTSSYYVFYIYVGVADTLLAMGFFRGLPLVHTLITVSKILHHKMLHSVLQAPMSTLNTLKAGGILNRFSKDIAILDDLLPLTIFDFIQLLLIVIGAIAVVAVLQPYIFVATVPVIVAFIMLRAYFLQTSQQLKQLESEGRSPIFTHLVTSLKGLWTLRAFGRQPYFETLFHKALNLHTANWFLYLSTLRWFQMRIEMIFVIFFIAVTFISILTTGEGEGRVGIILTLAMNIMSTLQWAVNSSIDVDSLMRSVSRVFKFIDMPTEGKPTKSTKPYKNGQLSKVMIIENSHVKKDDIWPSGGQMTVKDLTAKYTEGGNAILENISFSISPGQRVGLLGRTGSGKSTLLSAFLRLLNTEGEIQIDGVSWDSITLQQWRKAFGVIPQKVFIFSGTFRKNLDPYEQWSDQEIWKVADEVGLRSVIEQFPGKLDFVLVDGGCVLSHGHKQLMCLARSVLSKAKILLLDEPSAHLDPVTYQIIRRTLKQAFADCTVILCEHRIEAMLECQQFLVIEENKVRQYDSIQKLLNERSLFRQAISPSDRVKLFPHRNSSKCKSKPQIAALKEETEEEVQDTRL

Row | SMILES | HBE2 Activity at 3 μM (%) (3 μM corrector) | HBE2 Activity at 3 μM (%) (3 μM) | also measured
1 | Cc1cccc(C)c1-c1cc2nc(n1)NS(=O)(=O)c1cccc(c1)C(=O)N(Cc1cncc(N3CCC34CCC4)n1)[C@H](CC(C)(C)C)CO2 [Compound 1604] |  |  | pEC50: > 6.00; Emax (read-out: HBE2 Max activity (%)): > 60%
2 | Cc1cccc(C)c1-c1cc2nc(n1)NS(=O)(=O)c1cccc(c1)C(=O)N(Cc1cncc(N(C)CC(C)C)n1)[C@H](CCC1CC1)CO2 [Compound 1717] | +++ (+++ is >60+) |  | 
3 | CCC(C)(C)C[C@@H]1COc2cc(-c3c(C)cccc3C)nc(n2)NS(=O)(=O)c2cccc(c2)C(=O)N1Cc1cncc(N(C)C2CCC2)n1 [Compound 1329, 12-[[6-[cyclobutyl(methyl)amino]pyrazin-2-yl]methyl]-11-(2,2-dimethylbutyl)-6-(2,6-dimethylphenyl)-2,2-dioxo-9-oxa-2λ^6-thia-3,5,12,19-tetrazatricyclo[12.3.1.14,8]nonadeca-1(18),4,6,8(19),14,16-hexaen-13-one] | ++ (++ is 30-60%) |  | 
4 | Cc1cccc(C)c1-c1cc2nc(n1)NS(=O)(=O)c1cccc(c1)C(=O)N(Cc1cccc(N3CCC[C@H]3C)n1)[C@H](CC1(C)CC1)CO2 [Compound 1569] |  | +++ (+++ is >60+) | 
5 | Cc1cccc(C)c1-c1cc2nc(n1)NS(=O)(=O)c1cccc(c1)C(=O)N(Cc1ncc(N3CCC(C)(C)C3)cn1)[C@H](CC1(C)CC1)CO2 [Compound 1561] |  | +++ (+++ is >60+) | 
6 | CCOc1cnc(CN2C(=O)c3cccc(c3)S(=O)(=O)Nc3nc(cc(-c4c(C)cccc4C)n3)OC[C@H]2CCC(C)C)nc1 [Compound 1599] |  | +++ (+++ is >60+) | 
7 | CC[C@@H](C)Oc1cnc(CN2C(=O)c3cccc(c3)S(=O)(=O)Nc3nc(cc(-c4c(C)cccc4C)n3)OC[C@H]2CC2CCC2)nc1 [Compound 1556] |  | +++ (+++ is >60+) | 
8 | CC(=O)N(C)c1cccc(CN2C(=O)c3cccc(c3)S(=O)(=O)Nc3nc(cc(-c4c(C)cccc4C)n3)OC[C@H]2CC(C)(C)C)n1 [Compound 1583] |  | +++ (+++ is >60+) | 
9 | Cc1cccc(C)c1-c1cc2nc(n1)NS(=O)(=O)c1cccc(c1)C(=O)N(Cc1cncc(N(C)C3CCC3)n1)[C@@H]1CN(C3CC4(CCCC4)C3)C[C@H]1O2 [Compound 1323, (3R,7R)-8-[[6-[Cyclobutyl(methyl)amino]pyrazin-2-yl]methyl]-19-(2,6-dimethylphenyl)-15,15-dioxo-5-spiro[3.4]octan-2-yl-2-oxa-15λ^6-thia-5,8,16,18,21-pentazatetracyclo[15.3.1.110,14.03,7]docosa-1(20),10,12,14(22),17(21),18-hexaen-9-one] | ++ (++ is 30-60%) |  | 
10 | Cc1cccc(C)c1-c1cc2nc(n1)NS(=O)(=O)c1cccc(c1)C(=O)N(Cc1ncc(OC(C)C)cn1)[C@H]([C@H](C)C1CC1)CO2 (stereo in doubt) [Compound 1558] |  | +++ (+++ is >60+) | 
11 | Cc1cccc(C)c1-c1cc2nc(n1)NS(=O)(=O)c1cccc(c1)C(=O)N(Cc1ncc(N3CCC(C)(C)CC3)cn1)[C@H](CC1(C)CC1)CO2 [Compound 1560] |  | +++ (+++ is >60+) | 
12 | Cc1cccc(C)c1-c1cc2nc(n1)NS(=O)(=O)c1cccc(c1)C(=O)N(Cc1cncc(N(C)C3CCC3)n1)[C@H](CC1CC(C)(C)C1)CO2 (single isomer, unassigned) [Compound 1339, 12-[[6-[Cyclobutyl(methyl)amino]pyrazin-2-yl]methyl]-11-[(3,3-dimethylcyclobutyl)methyl]-6-(2,6-dimethylphenyl)-2,2-dioxo-9-oxa-2λ^6-thia-3,5,12,19-tetrazatricyclo[12.3.1.14,8]nonadeca-1(18),4(19),5,7,14,16-hexaen-13-one] | +++ (+++ is >60+) |  | 
13 | Cc1cccc(C)c1-c1cc2nc(n1)NS(=O)(=O)c1cccc(c1)C(=O)N(Cc1cnc(C)c(N(C)C3CCC3)n1)[C@H](CC(C)(C)C)CO2 [Compound 1714] | +++ (+++ is >60+) |  | 
14 | CCCCN(C)c1cncc(CN2C(=O)c3cccc(c3)S(=O)(=O)Nc3nc(cc(-c4c(C)cccc4C)n3)OC[C@H]2CC(C)(C)C)n1 [Compound 1698] |  | +++ (+++ is >60+) | 
15 | CC[C@@]1(COC)CCCN1c1cccc(CN2C(=O)c3cccc(c3)S(=O)(=O)Nc3nc(cc(-c4c(C)cccc4C)n3)OC[C@H]2CC(C)(C)C)n1 [Compound 1617] |  | +++ (+++ is >60+) | 
16 | Cc1cccc(C)c1-c1cc2nc(n1)NS(=O)(=O)c1cccc(c1)C(=O)N(Cc1cccc([C@@H](C)N3CCCC3)n1)[C@H](CC(C)(C)C)CO2 [Compound 1589] |  | ++ (++ is 30-60%) | 
17 | Cc1cccc(C)c1-c1cc2nc(n1)NS(=O)(=O)c1cccc(c1)C(=O)N(Cc1cncc(N3CC4OCC[C@@H]43)n1)[C@H](CC(C)(C)C)CO2 (stereo in doubt) [Compound 1629] |  | +++ (+++ is >60+) | 
18 | COC[C@@H]1CCN1c1ccnc(CN2C(=O)c3cccc(c3)S(=O)(=O)Nc3nc(cc(-c4c(C)cccc4C)n3)OC[C@H]2CC(C)(C)C)n1 [Compound 1553] |  | +++ (+++ is >60+) | 
19 | Cc1cccc(C)c1-c1cc2nc(n1)NS(=O)(=O)c1cccc(c1)C(=O)N(Cc1cncc(N(C)C(C)C)n1)[C@H](CCC1CC1)CO2 [Compound 1718] | +++ (+++ is >60+) |  | 

Further lines, with some results ahead:

Row | HBE2 Activity at 3 μM (%) (3 μM corrector) | HBE2 Activity at 3 μM (%) (3 μM) | SMILES | also measured
20 | +++ (+++ is >60+) |  | Cc1cccc(C)c1-c1cc2nc(n1)NS(=O)(=O)c1cccc(c1)C(=O)N(Cc1cncc(N3CCC[C@H]3C)n1)[C@H](C[C@H]1CCCOC1)CO2 (stereo in doubt) [Compound 1940] | 
21 | +++ (+++ is >60+) |  | Cc1cccc(C)c1-c1cc2nc(n1)NS(=O)(=O)c1cccc(c1)C(=O)N(Cc1cc(N)cc(N(C)C3CCC3)n1)[C@H](CC(C)(C)C)CO2 [Compound 1928] | 
22 | +++ (+++ is >60+) |  | Cc1cccc(C)c1-c1cc2nc(n1)NS(=O)(=O)c1cccc(c1)C(=O)N(Cc1cncc(N3[C@H](C)CC[C@H]3C)n1)[C@H](CCC(C)(C)C)CO2 [Compound 1947] | 
23 | +++ (+++ is >60+) |  | CCC(C)(C)C[C@@H]1COc2cc(-c3c(C)cccc3C)nc(n2)NS(=O)(=O)c2cccc(c2)C(=O)N1Cc1cncc(N2CC[C@H]2C)n1 [Compound 1861] | 
24 | +++ (+++ is >60+) |  | Cc1cccc(C)c1-c1cc2nc(n1)NS(=O)(=O)c1cccc(c1)C(=O)N(Cc1cnc3c(n1)N(C)C(C)(C)C3)[C@H](CC(C)(C)C)CO2 [Compound 1883] | 
25 | +++ (+++ is >60+) |  | Cc1cccc(C)c1-c1cc2nc(n1)NS(=O)(=O)c1cccc(c1)C(=O)N(Cc1cncc(N(C)C3CCC3)n1)[C@@H]1CCN(C3CC4(CC4)C3)C[C@H]1O2 [Compound 1767] | 
26 | +++ (+++ is >60+) |  | CO[C@H](C)[C@@H]1CCCN1c1cncc(CN2C(=O)c3cccc(c3)S(=O)(=O)Nc3nc(cc(-c4c(C)cccc4C)n3)OC[C@H]2CCC(C)(C)C)n1 [Compound 1935] | 
27 | ++ (++ is 30-60%) |  | Cc1cccc(C)c1-c1cc2nc(n1)NS(=O)(=O)c1cccc(c1)C(=O)N(Cc1cncc(N(C)C3CCC3)n1)[C@@H]1CN(CC(C)(C)C)CC1O2 (stereo in doubt) [Compound 1740] | 
28 | +++ (+++ is >60+) |  | Cc1cccc(C)c1-c1cc2nc(n1)NS(=O)(=O)c1cccc(c1)C(=O)N(Cc1cncc(N(C)CC(C)C)n1)[C@H](CCC(C)C)CO2 [Compound 1763] | 
29 | +++ (+++ is >60+) |  | CCn1c(C(C)C)cc2ncc(CN3C(=O)c4cccc(c4)S(=O)(=O)Nc4nc(cc(-c5c(C)cccc5C)n4)OC[C@H]3COC(C)C)nc21 [Compound 1933] | 
30 | +++ (+++ is >60+) |  | Cc1cccc(C)c1-c1cc2nc(n1)NS(=O)(=O)c1cccc(c1)C(=O)N(Cc1cncc(N3CCC[C@H]3C)n1)[C@H](COC(C)C)CO2 [Compound 1937] | 
31 | +++ (+++ is >60+) |  | Cc1cccc(C)c1-c1cc2nc(n1)NS(=O)(=O)c1cccc(c1)C(=O)N(Cc1cnc3ccn(CC(C)C)c3n1)[C@H](CC(C)(C)C)CO2 [Compound 1755] | 
32 | +++ (+++ is >60+) |  | Cc1cccc(C)c1-c1cc2nc(n1)NS(=O)(=O)c1cccc(c1)C(=O)N(Cc1cncc(N3CC(C)(C)[C@H]3C(C)C)n1)[C@H](CC(C)(C)C)CO2 [Compound 1750] | 
33 | +++ (+++ is >60+) |  | Cc1cccc(C)c1-c1cc2nc(n1)NS(=O)(=O)c1cccc(c1)C(=O)N(Cc1cncc(N(C)C3CCC3C)n1)[C@H](CC(C)(C)C)CO2 (stereo partly drawn) [Compound 1785] | 
34 | +++ (+++ is >60+) |  | Cc1cccc(C)c1-c1cc2nc(n1)NS(=O)(=O)c1cccc(c1)C(=O)N(Cc1cncc(N(C)C3CC(F)(F)C3)n1)[C@H](COC1CC1)CO2 [Compound 1905] | 
35 | +++ (+++ is >60+) |  | CCC(C)CN(C)c1cncc(CN2C(=O)c3cccc(c3)S(=O)(=O)Nc3nc(cc(-c4c(C)cccc4C)n3)OC[C@H]2CC(C)(C)C)n1 (stereo partly drawn) [Compound 1727] | 
36 | +++ (+++ is >60+) |  | Cc1cccc(C)c1-c1cc2nc(n1)NS(=O)(=O)c1cccc(c1)C(=O)N(Cc1cncc(N(C)CC3CC3)n1)[C@H](CCC(C)(C)C)CO2 [Compound 1810] | 
37 | +++ (+++ is >60+) |  | Cc1cccc(C)c1-c1cc2nc(n1)NS(=O)(=O)c1cccc(c1)C(=O)N(Cc1cncc(N3CCC[C@H]3C(C)C)n1)[C@H](CC1(C)CCC1)CO2 [Compound 1775] | 
38 | +++ (+++ is >60+) |  | Cc1cccc(C)c1-c1cc2nc(n1)NS(=O)(=O)c1cccc(c1)C(=O)N(Cc1cncc(N3CCO[C@@H](C)[C@H]3C)n1)[C@H](CC(C)(C)C)CO2 [Compound 1761] | 
